From publication PMC9925730, “Controlled sequential in situ self-assembly and disassembly of a fluorogenic cisplatin prodrug for cancer theranostics” (Nature Communications, 2023)
Several values for one entry are separate records, joined by “and”; a condition that tells them apart may be missing. Equal entries are not always repeated. Entries after “also recorded” stand apart in the source; their conditions may differ. Where two headings read alike, the source gives them in different places.

Legend:
[1] = test system: HeLa cells; assay: Cytotoxicity, MTT assay; assay type: cell-based, human; set-up: key to cell viability, mean: % viability = OD / OD of untreated control
Experimental: (§1) HeLa cells were seeded on flat-bottomed 96-well plates (5000 cells per well) and incubated at 37 °C overnight. Varying concentrations of P-CyPt, Pt^IVNPs or CDDP (0, 1, 2, 5, 10, 20, 30, 50, 100, and 200 μM) in DMEM medium (100 μL) were added. Cells were either incubated for 48 h, or firstly incubated with these three compounds for 2 h, washed with PBS and then incubated with refreshed blank DMEM medium for another 48 h. Then, 3-(4,5)-dimethylthiahiazo (-z-y1)−3,5-di-phenytetrazoliumromide (MTT, 50 μL, 1 mg /mL in PBS) was added into each well. The cells were kept at 37 °C for 4 h, and the solution in each well was carefully removed, followed by addition of dimethyl sulfoxide (DMSO, 150 μL). The absorbance (OD) at 490 nm in each well was acquired on the microplate reader (Tcan). The absorbance of non-treated blank cells (OD control) was used as the control. The percentage of cell viability was calculated by dividing OD to the OD control. […]
(§2) Supplementary Table 4. The IC50 (μM) value of different Pt drugs toward HeLa, HepG2 and HEK-293T cells.a
(§3) Compounds Condition IC50 (μM) HeLa HepG2 HEK-293T […]
(§4) a The IC50 values were measured by the MTT assay. Values denote mean ± s.d. (n = 3 independent experiments). b Cells were incubated with varying concentrations of CDDP, P-CyPt or PtIVNPs for […]
(§5) c Cells were incubated with varying concentrations of CDDP, P-CyPt or PtIVNPs for 2 h, and the mediums were removed, washed with PBS. Blank culture mediums were added, and the cells were kept incubation for another 48 h.

[2] = test system: HepG2 cells; assay: Cytotoxicity, MTT assay; assay type: cell-based, human; set-up: key to cell viability, mean: % viability = OD / OD of untreated control
Experimental: as §1, §2, §3, §4, §5

[3] = Urine and faeces analysis by HPLC (mCy-containing compounds); assay type: in vivo, mice; set-up: mCy in urine: unit not given beside the values; details: for percentage excreted to the faeces (HPLC) / percentage excreted to the urine (HPLC): after i.v. P-CyPt
[4] = test system: supercoiled pBR322 plasmid DNA; assay: Ability to break DNA double strand (agarose gel electrophoresis); assay type: biochemical; details: 100 μM, 37 °C, 16 h
Experimental: Evaluation of the ability to break DNA double strand
by different species of Pt compounds. (a) Agarose gel electrophoresis of supercoiled
pBR322 plasmid DNA (10 ng/μL) after incubating with indicated conditions.
represents the linear DNA marker ladder (500-12000 bp); Lane i: DNA; Lane ii: DNA
+ GSH (2 mM); Lane iii: DNA + CDDP (100 μM); Lane iv: DNA + CDDP (100 μM)
+ GSH (2 mM); Lane v: DNA + P-CyPt (100 μM); Lane vi: DNA + P-CyPt (100 μM)
+ GSH (2 mM), Lane vii: DNA +P-CyPt (100 μM) + ALP (500 U/L), Lane viii: DNA
+P-CyPt (100 μM) + ALP (500 U/L) +GSH (2 mM); (b) Agarose gel electrophoresis
of supercoiled pBR322 plasmid DNA (20 ng/μL) after incubating with varying
concentrations of P-CyPt (0, 1, 2, 5, 10, 20, 50 and 100 μM) respectively) plus ALP
(500 U/L), followed by incubation with GSH (2 mM) in Tris buffer at 37 °C for 16 h.
One representative experiment out of two is shown.

[5] = Side toxicity in s.c. HeLa tumor-bearing mice (body weight, BUN, CRE, H&E)
[6] = Time period 0-2 h, individual mice, matrix and injected agent not given
[7] = Time period 0-2 h, mean of 3 mice, matrix and injected agent not given
[8] = Time period 2-4 h, individual mice
[9] = Time period 2-4 h, mean of 3 mice
[10] = Time period 4-8 h, individual mice
[11] = Time period 4-8 h, mean of 3 mice
[12] = Time period 8-12 h, mean of 3 mice

CC1(C)C(/C=C/C2=C3Oc4cc(OP(=O)(O)O)c(Cl)cc4C=C3CCC2)=[N+](CCCNC(=O)[C@@H](Cc2ccccc2)NC(=O)[C@@H](Cc2ccccc2)NC(=O)CCC(=O)[O][Pt]([NH2])([NH2])([OH])([Cl])[Cl])c2ccccc21 [P-CyPt]
IC50 ([1]; HeLa, 2+48 h, individual samples, read-out: IC50-2+48h): 14.2 µM and 15.9 µM and 13.5 µM
IC50 ([1]; HeLa, 2+48 h, mean of 3 samples, read-out: IC50-2+48h): 14.6 µM
IC50 ([1]; HeLa, 48 h, individual samples, read-out: IC50-48h): 5.97 µM and 7.11 µM and 7.21 µM
cell viability, mean ([1]; Supplementary Fig. 23 (a), concentration 1 μM): 92.8903
cell viability, mean ([1]; Supplementary Fig. 23 (a), concentration 2 μM): 79.6162
cell viability, mean ([1]; Supplementary Fig. 23 (a), concentration 5 μM): 58.6671
cell viability, mean ([1]; Supplementary Fig. 23 (a), concentration 10 μM): 35.0547
cell viability, mean ([1]; Supplementary Fig. 23 (a), concentration 20 μM): 22.3775
cell viability, mean ([1]; Supplementary Fig. 23 (a), concentration 30 μM): 18.41
cell viability, mean ([1]; Supplementary Fig. 23 (a), concentration 50 μM): 13.1166
cell viability, mean ([1]; Supplementary Fig. 23 (a), concentration 100 μM): 9.42
cell viability, mean ([1]; Supplementary Fig. 23 (a), concentration 200 μM): 5.73
IC50 ([1]; Supplementary Fig. 23 (a), read-out: IC50): 6.76 µM
cell viability, mean ([1]; Supplementary Fig. 24 (a), concentration 1 μM): 94.9375
cell viability, mean ([1]; Supplementary Fig. 24 (a), concentration 2 μM): 87.7526
cell viability, mean ([1]; Supplementary Fig. 24 (a), concentration 5 μM): 73.6215
cell viability, mean ([1]; Supplementary Fig. 24 (a), concentration 10 μM): 60.3727
cell viability, mean ([1]; Supplementary Fig. 24 (a), concentration 20 μM): 43.1523
cell viability, mean ([1]; Supplementary Fig. 24 (a), concentration 30 μM): 31.9252
cell viability, mean ([1]; Supplementary Fig. 24 (a), concentration 50 μM): 21.7758
cell viability, mean ([1]; Supplementary Fig. 24 (a), concentration 100 μM): 11.35
cell viability, mean ([1]; Supplementary Fig. 24 (a), concentration 200 μM): 7.117
IC50 ([1]; incubated 2 h, then blank medium 48 h, MTT, read-out: IC50 HeLa): 14.6 ± 1.24 µM
IC50 ([1]; incubated 48 h, MTT, read-out: IC50 HeLa): 6.76 ± 0.68 µM
IC50 ([2]; HepG-2, 2+48 h, individual samples, read-out: IC50-2+48h): 20.2 µM and 17.1 µM (2×)
IC50 ([2]; HepG-2, 2+48 h, mean of 3 samples, read-out: IC50-2+48h): 18.1 µM
IC50 ([2]; HepG-2, 48 h, individual samples, read-out: IC50-48h): 9.3 µM and 10.5 µM and 11 µM
cell viability, mean ([2]; Supplementary Fig. 23 (b), concentration 1 μM): 92.0846
cell viability, mean ([2]; Supplementary Fig. 23 (b), concentration 2 μM): 82.2394
cell viability, mean ([2]; Supplementary Fig. 23 (b), concentration 5 μM): 69.0701
cell viability, mean ([2]; Supplementary Fig. 23 (b), concentration 10 μM): 51.1783
cell viability, mean ([2]; Supplementary Fig. 23 (b), concentration 20 μM): 33.5308
cell viability, mean ([2]; Supplementary Fig. 23 (b), concentration 30 μM): 23.4253
cell viability, mean ([2]; Supplementary Fig. 23 (b), concentration 50 μM): 15.7997
cell viability, mean ([2]; Supplementary Fig. 23 (b), concentration 100 μM): 10.0234
cell viability, mean ([2]; Supplementary Fig. 23 (b), concentration 200 μM): 7.08
IC50 ([2]; Supplementary Fig. 23 (b), read-out: IC50): 10.3 µM
cell viability, mean ([2]; Supplementary Fig. 24 (b), concentration 1 μM): 95.0066
cell viability, mean ([2]; Supplementary Fig. 24 (b), concentration 2 μM): 86.4416
cell viability, mean ([2]; Supplementary Fig. 24 (b), concentration 5 μM): 75.7976
cell viability, mean ([2]; Supplementary Fig. 24 (b), concentration 10 μM): 64.0113
cell viability, mean ([2]; Supplementary Fig. 24 (b), concentration 20 μM): 47.6001
cell viability, mean ([2]; Supplementary Fig. 24 (b), concentration 30 μM): 36.5665
cell viability, mean ([2]; Supplementary Fig. 24 (b), concentration 50 μM): 27.7515
cell viability, mean ([2]; Supplementary Fig. 24 (b), concentration 100 μM): 19.0319
cell viability, mean ([2]; Supplementary Fig. 24 (b), concentration 200 μM): 12.1606
IC50 ([2]; Supplementary Fig. 24 (b), read-out: IC50): 18.1 µM
IC50 ([2]; incubated 2 h, then blank medium 48 h, MTT, read-out: IC50 HepG2): 18.1 ± 1.78 µM
IC50 ([2]; incubated 48 h, MTT, read-out: IC50 HepG2): 10.3 ± 0.87 µM
mCy in urine ([3]; Fig.6e, 0-2 h, mean of 3 mice): 12.76
mCy in urine ([3]; Fig.6e, 0-2 h, single mice): 12.5823 and 14.2325 and 11.4685
mCy in urine ([3]; Fig.6e, 2-4 h, mean of 3 mice): 12.43
mCy in urine ([3]; Fig.6e, 2-4 h, single mice): 12.5615 and 13.5939 and 11.1324
mCy in urine ([3]; Fig.6e, 4-8 h, mean of 3 mice): 12.56
mCy in urine ([3]; Fig.6e, 4-8 h, single mice): 12.5588 and 13.6118 and 11.5060
mCy in urine ([3]; Fig.6e, 8-12 h, mean of 3 mice): 7.02
mCy in urine ([3]; Fig.6e, 8-12 h, single mice): 7.0621 and 8.1416 and 5.8422
mCy in urine ([3]; Fig.6f, 0-2 h, mean of 3 mice): 0.53
mCy in urine ([3]; Fig.6f, 0-2 h, single mice): 0.4663 and 0.7332 and 0.3884
mCy in urine ([3]; Fig.6f, 2-4 h, mean of 3 mice): 6.03
mCy in urine ([3]; Fig.6f, 2-4 h, single mice): 6.1714 and 7.3564 and 4.5750
mCy in urine ([3]; Fig.6f, 4-8 h, mean of 3 mice): 21.29
mCy in urine ([3]; Fig.6f, 4-8 h, single mice): 22.9482 and 23.3466 and 17.5729
mCy in urine ([3]; Fig.6f, 8-12 h, mean of 3 mice): 9.19
mCy in urine ([3]; Fig.6f, 8-12 h, single mice): 7.4602 and 10.7840 and 9.3353
Compound found in excreta (%), Supplementary Table S5 [3, 6]: 11.1327% and 12.5928% and 10.1473%
Compound found in excreta (%), Supplementary Table S6 [3, 6]: 0.3965% and 0.6235% and 0.3303%
Compound found in excreta (%), Supplementary Table S5 [3, 7]: 11.29%
Compound found in excreta (%), Supplementary Table S6 [3, 7]: 0.45%
Compound found in excreta (%), Supplementary Table S5 [3, 8]: 5.17% and 5.5947% and 4.582%
Compound found in excreta (%), Supplementary Table S6 [3, 8]: 4.641% and 5.532% and 3.44%
Compound found in excreta (%), Supplementary Table S5 [3, 9]: 5.12%
Compound found in excreta (%), Supplementary Table S6 [3, 9]: 4.54%
Compound found in excreta (%), Supplementary Table S5 [3, 10]: 4.333% and 4.696% and 3.97%
Compound found in excreta (%), Supplementary Table S6 [3, 10]: 0.5705% and 0.5804% and 0.4369%
Compound found in excreta (%), Supplementary Table S5 [3, 11]: 4.33%
Compound found in excreta (%), Supplementary Table S6 [3, 11]: 0.53%
Compound found in excreta (%), Supplementary Table S5 [3, 12]: 1.41%
Compound found in excreta (%), Supplementary Table S6 [3, 12]: 0.06%
percentage excreted to the faeces (HPLC) ([3]; 2-4 h): 4.54± 1.05% and ~ 4.5%
percentage excreted to the urine (HPLC) ([3]; 2-4 h): 5.12 ± 0.51%
percentage excreted to the faeces (HPLC) ([3]; 4-8 h): 0.53 ± 0.080%
percentage excreted to the urine (HPLC) ([3]; 4-8 h): 4.33 ± 0.055%
percentage excreted to the faeces (HPLC) ([3]; 8-12 h): 0.059 ± 0.011%
percentage excreted to the urine (HPLC) ([3]; 8-12 h): 1.41 ± 0.23%
mCy-containing compounds excreted via hepatobiliary system ([3]; over 12 h, of injected dose): ~ 37.0%
mCy-containing compounds excreted via renal system ([3]; over 12 h, of injected dose): ~ 44.8%
effect on supercoiled pBR322 DNA ([4]; plus GSH (2 mM)): can significantly relax the supercoiled DNA
effect on supercoiled pBR322 DNA ([4]; without GSH): cannot bind to and break the DNA double strand
body weight during treatment ([5]; 2.25 mg kg^−1 Pt i.v. x5, 21 days): similar
increase of blood urea nitrogen (BUN) level ([5]; day 21): not obviously upregulated
increase of creatinine (CRE) level ([5]; day 21): not obviously upregulated
H&E staining of major organs (side toxicity) ([5]; day 21 after 5 doses of 2.25 mg kg^−1 Pt): all organs looked normal; also recorded: no apparent cell death
